Data as given in CN113698460A, “一种大肠杆菌lipid A结合基元PCK及其制备方法与应用” (priority 2021, dated 2021).
No end group written: not given here.

Tested on: 北京鸭红细胞
Assay: Hemolysis of red blood cells
Type: cell-based, Peking duck

Compound	Hemolysis rate (berberine alone, concentration not given) [%]	Toxicity to Peking duck red blood cells (PCK 0.5-128 μg/mL)
COc1ccc2cc3[n+](cc2c1OC)CCc1cc2c(cc1-3)OCO2 [小檗碱]	1	–
SYPMYARRFLFKWGLLR-NH2 [PCK, Ser Tyr Pro Met Tyr Ala Arg Arg Phe Leu Phe Lys Trp Gly Leu Leu Arg-NH2]	–	没有毒性
